Assay results reported in patent US10221163B2 (priority 2015, dated 2019).
Where two headings read alike, the source gives them in different places.

Tests used:
IMP-1 = IMP-1 (Serratia marcescens, UniProt P52699); assay: biochemical; type: biochemical; settings: fluorescence assay, CCF2-FA substrate, 2 pM enzyme, 2 hours at 25° C.; read-out: IMP-1 IC50
Summary of the method: (§1)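 Test compound, enzyme and the FRET cephalosporin substrate CCF2-FA are incubated together for 2 hours at 25° C. Cleavage is followed by fluorescence, and IC50 values are derived from semi-logarithmic inhibition curves fitted with a 4-parameter model.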

NDM-1 = NDM-1 (Klebsiella pneumoniae, UniProt C7C422); assay: biochemical; type: biochemical; settings: fluorescence assay, CCF2-FA substrate, 1 pM enzyme, 2 hours at 25° C.; read-out: NDM-1 IC50
Summary of the method: as §1

VIM-1 = VIM-1 (Pseudomonas aeruginosa (strain ATCC 15692 / DSM 22644 / CIP 104116 / JCM 14847 / LMG 12228 / 1C / PRS 101 / PAO1), UniProt A0A0F7KYQ8); assay: biochemical; settings: CCF2-FA substrate, 30 pM enzyme, 2 hours at 25° C.
Summary of the method: as §1

[1] = system: Escherichia coli expressing NDM-1 (CLB30005, CLB30016); type: cell-based; settings: with imipenem 1 μg/ml; for Escherichia coli expressing NDM-1 (CLB30016) MITC95: 95% inhibition of bacterial growth; for Escherichia coli MITC95: NDM-1 strain, 95% inhibition of growth
Summary of the method: (§2)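 Colonies grown overnight on blood agar at 35° C were suspended in saline, diluted 1:100 into 1.1×CAMHB and dispensed. Imipenem was added to 1 μg/ml, then test compound. After 22 hours to 24 hours at 35° C, absorbance was recorded.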

[2] = system: Klebsiella pneumoniae expressing VIM-1 (IHMA599644); type: cell-based; settings: for Klebsiella pneumoniae expressing VIM-1 (IHMA599644) MITC95: with imipenem 1 μg/ml, 95% inhibition of bacterial growth; for Klebsiella pneumoniae MITC95: VIM-1 strain IHMA599644, with imipenem 1 μg/ml, 95% inhibition of growth
Summary of the method: as §2

[3] = system: Serratia marcescens expressing IMP-1 (CL5741); type: cell-based; settings: for Serratia marcescens expressing IMP-1 (CL5741) MITC95: with imipenem 1 μg/ml, 95% inhibition of bacterial growth; for Serratia marcescens MITC95: IMP-1 strain CL5741, with imipenem 1 μg/ml, 95% inhibition of growth
Summary of the method: as §2

[4] = system: Pseudomonas aeruginosa efflux+ (MB9798), IMP-1; type: cell-based; parameters: Concentration of metallo-β-lactamase inhibitor which restores susceptibility of efflux + (MB9798) strain to imipenem: unit not given here; settings: C, D serine β-lactamase inhibitor closely related to relebactam; for P. aeruginosa expressing IMP-1, efflux + (MB9798) MITC95: concentration restoring susceptibility to imipenem at 2 μg/mL in the presence of a class A; for Concentration of metallo-β-lactamase inhibitor which restores susceptibility of efflux + (MB9798) strain to imipenem: imipenem at 2 μg/mL, in the presence of a class A
Summary of the method: (§3)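 Steps: add fixed imipenem and/or ceftazidime (usually CLSI breakpoint) and fixed AmpC-directed class A/C inhibitor to microbroth MIC wells; titrate MBL inhibitor; record concentration regaining susceptibility for each PAO1-derived strain; divide efflux+ by efflux− value.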

[5] = system: Pseudomonas aeruginosa efflux− (MB9799), IMP-1; type: cell-based; settings: C, D serine β-lactamase inhibitor closely related to relebactam; for P. aeruginosa expressing IMP-1, efflux − (MB9799) MITC95: concentration restoring susceptibility to imipenem at 2 μg/mL in the presence of a class A; for Concentration of metallo-β-lactamase inhibitor which restores susceptibility of efflux − (MB9799) strain to imipenem: imipenem at 2 μg/mL, in the presence of a class A
Summary of the method: as §3

[6] = system: Pseudomonas aeruginosa MB9798 vs MB9799
Summary of the method: as §3

[7] = fluorescence assay, read-out: VIM-1 IC50
[8] = ratio MITC95 PA_9798/MITC95 PA_9799
[9] = fold difference between efflux+ (MB9798) and efflux− (MB9799) strains, imipenem at 2 μg/mL

Sequence of NDM-1 (C7C422 whole entry, looked up, species assumed): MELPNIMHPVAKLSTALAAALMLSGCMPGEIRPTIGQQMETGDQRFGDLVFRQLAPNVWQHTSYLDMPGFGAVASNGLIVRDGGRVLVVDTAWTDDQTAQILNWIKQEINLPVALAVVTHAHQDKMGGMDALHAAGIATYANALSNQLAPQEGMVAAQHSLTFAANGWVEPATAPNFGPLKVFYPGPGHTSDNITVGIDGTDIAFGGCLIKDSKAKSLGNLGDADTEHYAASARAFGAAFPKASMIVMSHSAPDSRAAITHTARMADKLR
Sequence of IMP-1 (P52699 whole entry, looked up, species assumed): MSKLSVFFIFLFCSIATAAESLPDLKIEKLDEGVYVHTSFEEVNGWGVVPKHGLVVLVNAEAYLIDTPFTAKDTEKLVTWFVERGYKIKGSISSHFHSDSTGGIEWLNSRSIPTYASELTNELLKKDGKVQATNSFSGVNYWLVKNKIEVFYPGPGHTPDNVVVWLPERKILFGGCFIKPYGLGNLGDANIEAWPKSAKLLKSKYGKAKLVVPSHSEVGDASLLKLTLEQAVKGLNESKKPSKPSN

Structure (SMILES)	IC50 (IMP-1) [nM]	IC50 (NDM-1) [nM]	IC50 (VIM-1; [7]) [nM]	Escherichia coli expressing NDM-1 (CLB30016) MITC95 [1] [µM]	Klebsiella pneumoniae expressing VIM-1 (IHMA599644) MITC95 [2] [µM]	Serratia marcescens expressing IMP-1 (CL5741) MITC95 [3] [µM]	P. aeruginosa expressing IMP-1, efflux + (MB9798) MITC95 [4] [µM]	P. aeruginosa expressing IMP-1, efflux − (MB9799) MITC95 [5] [µM]	Efflux ratio [6, 8]	Escherichia coli MITC95 [1] [µM]	Klebsiella pneumoniae MITC95 [2] [µM]	Serratia marcescens MITC95 [3] [µM]	IC50 (VIM-1; VIM-1 IC50, fluorescence assay) [nM]	Concentration of metallo-β-lactamase inhibitor which restores susceptibility of efflux + (MB9798) strain to imipenem [4]	Concentration of metallo-β-lactamase inhibitor which restores susceptibility of efflux − (MB9799) strain to imipenem [5]	Efflux ratio [6, 9]
CCC1(NS(=O)(=O)c2ccc(-c3cccc4sc(N)nc34)c(-c3nnn[nH]3)c2S(N)(=O)=O)CCNC1 (stereo not drawn) [Example 56, 4-(2-amino-1,3-benzothiazol-4-yl)-N1-(3-ethylpyrrolidin-3-yl)-3-(1H-tetrazol-5-yl)benzene-1,2-disulfonamide]	0.342	0.0519	0.245	1.563	3.125	3.125	1.563	1.563	1.00	–	–	–	–	–	–	–
NCCCCNS(=O)(=O)c1ccc(-c2cccc3[nH]c(N)nc23)c(-c2nn[nH]n2)c1S(N)(=O)=O [Example 258, 4-(2-amino-1H-benzo[d]imidazol-7-yl)-N1-(4-aminobutyl)-3-(2H-tetrazol-5-yl)benzene-1,2-disulfonamide]	0.691	0.0535	0.156	–	–	–	0.7813	0.7813	1.00	0.1953	1.563	0.7813	–	–	–	–
NS(=O)(=O)c1c(S(=O)(=O)N[C@@H]2CCNC2)ccc(-c2cccc3cn[nH]c23)c1-c1nnn[nH]1 [Example 139, (R)-4-(1H-indazol-7-yl)-N1-(pyrrolidin-3-yl)-3-(1H-tetrazol-5-yl)benzene-1,2-disulfonamide]	0.41	0.0582	–	0.7813	3.125	1.563	0.7813	0.7813	1.00	–	–	–	0.141	–	–	–
Cc1ccc(-c2ccc(S(N)(=O)=O)c(S(N)(=O)=O)c2-c2nn[nH]n2)c2nc(N)sc12 [Example 6, 4-(2-amino-7-methylbenzo[d]thiazol-4-yl)-3-(2H-tetrazol-5-yl)benzene-1,2-disulfonamide]	0.0648	0.0269	0.0915	6.25	6.25	1.563	1.563	1.563	1.00	–	–	–	–	–	–	–
NC[C@@H](O)CNS(=O)(=O)c1ccc(-c2ccc(N)nc2)c(-c2nn[nH]n2)c1S(N)(=O)=O [Example 303, (R)-N1-(3-amino-2-hydroxypropyl)-4-(6-aminopyridin-3-yl)-3-(2H-tetrazol-5-yl)benzene-1,2-disulfonamide]	0.536	0.255	–	–	–	–	0.7813	0.7813	1.00	0.2197	1.953	0.5859	0.169	–	–	–
C[C@H](CCN)NS(=O)(=O)c1ccc(-c2cccc3[nH]c(N)nc23)c(-c2nn[nH]n2)c1S(N)(=O)=O [Example 266, (R)-4-(2-amino-1H-benzo[d]imidazol-4-yl)-N1-(4-aminobutan-2-yl)-3-(2H-tetrazol-5-yl)benzene-1,2-disulfonamide]	0.477	0.0282	0.115	–	–	–	0.3906	0.7813	0.50	0.7813	0.7813	0.7813	–	–	–	–
NCC(CN)NS(=O)(=O)c1ccc(-c2cccc(-c3cnc(N)[nH]3)n2)c(-c2nnn[nH]2)c1S(N)(=O)=O [Example 438, 4-(6-(2-Amino-1H-imidazol-5-yl)pyridin-2-yl)-N^1-(1,3-diaminopropan-2-yl)-3-(1H-tetrazol-5-yl)benzene-1,2-disulfonamide]	17.9	2.04	–	–	–	–	–	–	–	3.125	3.125	3.125	3.91	6.25	3.125	2.00
NS(=O)(=O)c1c(S(=O)(=O)N[C@@H]2CCNC2)ccc(-c2cccc(Nc3nc(CO)cs3)c2)c1-c1nn[nH]n1 [Example 470, (R)-3′-((4-(hydroxymethyl)thiazol-2-yl)amino)-N4-(pyrrolidin-3-yl)-2-(2H-tetrazol-5-yl)-[1,1′-biphenyl]-3,4-disulfonamide]	0.134	0.0496	0.11	–	–	–	–	–	–	0.7813	3.125	1.563	–	1.563	0.7813	2.00
CC[C@H](CN)NS(=O)(=O)c1ccc(-c2cccc3[nH]c(N)nc23)c(-c2nn[nH]n2)c1S(N)(=O)=O [Example 265, (R)-4-(2-amino-1H-benzo[d]imidazol-4-yl)-N1-(1-aminobutan-2-yl)-3-(2H-tetrazol-5-yl)benzene-1,2-disulfonamide]	0.292	0.0241	0.0927	–	–	–	0.7813	0.7813	1.00	1.563	1.563	0.7813	–	–	–	–
CC1(NS(=O)(=O)c2ccc(-c3cccc4[nH]c(N)nc34)c(-c3nn[nH]n3)c2S(N)(=O)=O)CNC1 [Example 257]	0.642	0.033	–	–	–	–	0.7813	0.7813	1.00	0.3906	0.7813	0.7813	0.157	–	–	–
